Data on 11 molecules can be found in patent US7910579B2, “Benzoxazole derivatives” (Tohoku University, priority 2006, dated 2011).

Read-outs that look alike come from different tables or passages of the source.

Data set [1] deals with T1, amyloid β protein in the brain section of an Alzheimer disease patient (Homo sapiens, UniProt P05067).
T1 construct: from tissue; host or cells: paraffin-embedded temporal lobe and hippocampus of Alzheimer disease patients
In words: Staining test on a brain section of an Alzheimer disease patient: amyloid β protein. The conditions noted are these: for Binding to (staining of) amyloid β protein in the brain section of an Alzheimer disease patient: 100 μM solution in 50% ethanol, 10 minutes, paraffin brain section; for Specificity to amyloid β: statement in the description of formulae (II) to (VI). It is filed as binding. From the text:
(1) Brain specimens at the temporal lobe and the hippocampus of patients to which a definitive diagnosis of Alzheimer disease had been given, and those of normal senile persons were used. The specimens were given by our coworker, Fukushimura Hospital, Longevity Medicine Institute, and we were given their consent of use of the specimens for our study purpose by the bereaved of the patients (Fukushimura Hospital Ethical Review Board Approval No. 20).
(2) The paraffin-embedded brain tissue was cut Into slices having a thickness of 6 μm or 8 μm, and extended and dried on a slide. The paraffin brain section was steeped for paraffin removal in xylene twice for 10 minutes, 100% ethanol twice for 5 minutes, 90% ethanol for 5 minutes and running water for 10 minutes in that order.
(3) For pretreatment prior to the staining treatment with a compound of the invention, the sections were steeped for autofluorescence removal with lipofuscin. First, the paraffin-removed sections were dipped in 0.25% KMnO4 solution for 20 minutes. These were washed with PBS, twice for 2 minutes, then dipped in 0.1% K2S2O5/oxalic acid solution for about 5 seconds, and then further washed with PBS, three times for 2 minutes.
(4) About 150 μl of a 100 μM solution of a compound of the invention dissolved in 50% ethanol was dropwise applied to the section and reacted for 10 minutes. After dipped five times in tap water, the section was entrapped with Fluor Save Reagent (Calbiochem), and analyzed through microscopy with a fluorescence microscope (Nikon, Eclipse 80i). The images were taken with a digital camera (Nikon Dxm 1200F or Photometrics' Cool SNAP ES).
(1) After paraffin removal, the sections were washed in distilled water, twice for 2 minutes. Then, using ImmunoPen, the tissue was marked with a surrounding line; about 150 μl of formic acid was dropwise applied to the section and statically left at room temperature for 5 minutes. The section was washed with tap water for 5 minutes, then dipped in cold PBS-Tween 20 for 2 minutes, and thereafter about 150 μl of 0.05% trypsin solution was dropwise applied to it and reacted at 37° C. for 15 minutes.
(2) In an ice bath, this was washed with cold PBS-Tween 20, twice for 5 minutes, and then 2 drops of blocking serum were applied to it and reacted at 37° C. for 30 minutes. Excess water was removed, and then about 150 μl of a specific antibody to amyloid β protein, 6F/3D (by DAKO, 1/50 dilution) was dropwise applied to it, and reacted at 37° C. for 1 hour.
(3) Further, this was washed with cold PBS-Tween 20, 5 times for 2 minutes, and then 2 drops of an anti-mouse IgG (H+L), goat, biotin-binding solution were applied to it and reacted at 37° C. for 1 hour. Then, this was washed with cold PBS-Tween 20, three times for 2 minutes, and 2 drops of an ABC solution (streptoavidin-biotin-peroxidase composite solution) were applied to it, and left statically as such for 30 minutes. Again this was washed with cold PBS-Tween 20, three times for 2 minutes, and then about 150 μl of a DAB solution (10 mg of DAB was dissolved in 20 ml of 0.05 mol/liter tris-HCl buffer, and just before use, 100 μl of 3% hydrogen peroxide water was added to it) was dropwise applied to it for sufficiently staining it. Then, this was washed with distilled water for 1 minute to stop the reaction, then entrapped and observed through microscopy.

The next data set is described as follows: Acute Toxicity Test. It is filed as in vivo. The conditions noted are these: Crj:CD1 male mice, tail vein, observed for 7 days. Here is the method: The compounds of the invention were tested for their acute toxicity through intravenous administration thereof to mice. Four Crj:CD1 male mice formed one test group, and some test groups of those mice were used (the mean body weight of the mice of each group was from 31 to 32 g). A test compound was dissolved in a mixture of 1 N HCl, polyethylene glycol-400 and distilled water, or dissolved in DMSO, and then diluted with distilled water. This was administered to each mouse via its tail vein.

In another data set the target is T2, Amyloid β protein 1-40 (Homo sapiens, UniProt P05067).
T2 construct: Amyloid β protein 1-40 (bought from Peptide Laboratory); purchased Peptide Laboratory
T2 sequence (P05067 672-711): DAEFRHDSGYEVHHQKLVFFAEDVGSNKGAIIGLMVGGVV
In words: Fluorescence Congo Red Method. It is filed as binding. The following applies: 1 h, compound 10 μM, amyloid β protein 5 μM. As for the experimental part:
Next described is a screening method for the compounds of the invention. Some of the compounds of the invention could not be screened according to a Thioflavin T method, since their fluorescence wavelength overlaps with that of Thioflavin T. For such compounds, the following novel screening method was introduced. (1) Amyloid β protein 1-40 (bought from Peptide Laboratory) was dissolved in a phosphate buffer (pH 7.4) and left at 37° C. for 4 days. (2) 50 μl of Congo red dissolved in the buffer was applied to a 96-well microplate (final concentration, 0.1, 0.3, 1 μM). (3) 100 μl of amyloid β protein was added to it (final concentration 5 μM), and left as such for 30 minutes. (4) 100 μl of a test compound dissolved in the buffer was added to it (final concentration, 10 μM, and left as such for 60 minutes. (5) Using a fluorescence microplate reader (Spectra Max 190 by Molecular Device), the sample was analyzed at the optimum exciting wavelength and the test wavelength that had been previously determined. (6) The fluorescence intensity in the presence of the test compound, amyloid β protein and Congo red is represented by A; that in the presence of the test compound and Congo red is by B; that in the presence of the test compound and amyloid β protein is by C; and that in the presence of only the test compound is by D. The β structure recognition of the test compound is computed according to the following formula: β structure recognition (%) of test compound={(A−B)/(C−D)}×100. (7) It may be said that the test compound having a higher β structure recognition percentage may have higher binding specificity to amyloid β protein.

[2] abbreviates: Congo red 0.1 μM, read-out: Binding Percentage of Compound in the presence of 0.1 μM CR.
[3] abbreviates: Congo red 0.3 μM, read-out: Binding Percentage of Compound in the presence of 0.3 μM CR.
Setting [4] is: Congo red 1 μM, read-out: Binding Percentage of Compound in the presence of 1 μM CR.

T1 sequence (P05067 672-713 limits assumed): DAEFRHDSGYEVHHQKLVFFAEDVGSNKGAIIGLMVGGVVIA

For the molecule `CN(C)c1ccc(/C=C/C23NC(=O)CN2c2ccc(Br)cc2C3(C)C)cc1` (centres unmarked) [THK-556, 7-bromo-9a-[2-(4-dimethyl-amino-phenyl)-vinyl]-9,9-dimethyl-9,9a-dihydro-1H-imidazo[1,2-a]indol-2-one], in data set [1], the “Binding to (staining of) amyloid β protein in the brain section of an Alzheimer disease patient” value (“Binding” for short) is recorded as “bound to the amyloid β protein” and the “Specificity to amyloid β” value is listed as “high specificity to amyloid β”.

Consider `c1csc(-c2nnc(-c3ccc(N4CCOCC4)cc3)o2)c1` [THK-383, 4-[4-(5-thiophen-2-yl-[1,3,4]oxadiazol-2-yl)-phenyl]-morpholine], for which, in data set [1], the “Binding” value is recorded as “bound to the amyloid β protein” and the “Specificity to amyloid β” value is on record as “high specificity to amyloid β”.

As for `OCC(CF)Oc1ccc2nc(/C=C/c3cnc(N4CCCCCC4)s3)oc2c1` (centres unmarked) [THK-765, (E)-6-[(1-fluoromethyl-2-hydroxy)ethoxy]-2-[2-[2-(homopiperidin-1-yl)thiazol-5-yl]ethenyl]benzoxazole], in “Acute Toxicity Test”, the “Maximum Permissible Dose (mg/kg, intravenous administration)” value (from here on “Maximum Permissible Dose”) was “≧10 mg/kg”. In addition, the activity at 10 µM was 71.2% at Amyloid β protein 1-40 (setting [2]), 41.3% at Amyloid β protein 1-40 (setting [3]) and 23% on Amyloid β protein 1-40 (setting [4]).

As for `OCC(CF)Oc1ccc2nc(/C=C/c3cnc(N4CCCOCC4)s3)oc2c1` (centres unmarked) [THK-766, (E)-6-[(1-fluoromethyl-2-hydroxy)ethoxy]-2-[2-[2-homomorpholinothiazol-5-yl)ethenyl]benzoxazole], the “Binding” value in data set [1] was “white space arrow indicates amyloid β protein”. Besides, the “Maximum Permissible Dose” value in “Acute Toxicity Test” is “≧10 mg/kg”. Further, the figures for the activity at 10 µM on Amyloid β protein 1-40 (setting [2]), at Amyloid β protein 1-40 (setting [3]) and on Amyloid β protein 1-40 (setting [4]) were 61%, 21.5% and 11.2%, respectively.

Regarding `OCC(CF)Oc1ccc2nc(/C=C/c3cnc(N4CCCOC4)s3)oc2c1` (centres unmarked) [THK-757, (E)-6-[(1-fluoromethyl-2-hydroxy)ethoxy]-2-[2-[2-([1,3]oxadinan-3-yl)-thiazol-5-yl]ethenyl] benzoxazole], the “Maximum Permissible Dose” value in “Acute Toxicity Test” is listed as “≧10 mg/kg”. Moreover, the activity at 10 µM at Amyloid β protein 1-40 (setting [2]) was found to be 52.4%; on Amyloid β protein 1-40 (setting [3]), 24.8%; on Amyloid β protein 1-40 (setting [4]), 10.3%.

Regarding `CN(C)c1ccc(/C=C/C23NC(=O)CCN2c2ccc(Br)cc2C3(C)C)cc1` (centres unmarked) [THK-558, 8-bromo-10a-[2-(4-dimethyl-amino-phenyl)-vinyl]-10,10-dimethyl 1-3,4,10,10a-tetrahydro-1H-pyrimido[1,2-a]indol-2-one], in data set [1], the “Binding” value is recorded as “bound to the amyloid β protein” and the “Specificity to amyloid β” value is “high specificity to amyloid β”.

As to `O=C1Nc2ccc(Cl)cc2/C1=C/c1ccc(N2CCOCC2)cc1` [THK-276, 5-chloro-3-(4-morpholin-4-yl-benzylidene)-1,3-dihydroindol-2-one], in data set [1], the “Binding” value is given as “bound to the amyloid β protein” and the “Specificity to amyloid β” value is “high specificity to amyloid β”.

`CN(C)c1ccc(-c2nnc(-c3sc4cc(Cl)ccc4c3Cl)o2)cc1` [THK-262, [4-[5-(3,6-dichloro-benzo[b]thiophen-2-yl)-[1,3,4]oxadiazol-2-yl]-phenyl]-dimethylamine]: in data set [1], the “Binding” value is on record as “bound to the amyloid β protein” and the “Specificity to amyloid β” value is “high specificity to amyloid β”.

For `CN(C)c1ccc(/C=C\C=C2C(=O)c3ccccc3C2=O)cc1` [THK-248, 2-[3-(4-dimethylamino-phenyl)-allylidene]-indane-1,3-dione], in data set [1], the “Binding” value is recorded as “bound to the amyloid β protein” and the “Specificity to amyloid β” value was “high specificity to amyloid β”.

Consider `Cc1ccc2c(c1)C(C)(C)C1(/C=C/C=C/c3ccc(N(C)C)cc3)NC(=O)CCN21` (centres unmarked) [THK-565], for which, in data set [1], the “Binding” value is “bound to the amyloid β protein” and the “Specificity to amyloid β” value is recorded as “high specificity to amyloid β”.

Consider `O=C1Nc2ccc(Cl)cc2/C1=C/c1ccc(N2CCOCC2)s1` [THK-308, 5-chloro-3-(5-morpholin-4-yl-thiophen-2-ylmethylene)-1,3-dihydroindol-2-one], for which, in data set [1], the “Binding” value is “bound to the amyloid β protein” and the “Specificity to amyloid β” value was “high specificity to amyloid β”.
